Laboratory results: ChEMBL document CHEMBL5724803, “Viability screening in matched tumor and normal assay results for EUbOPEN Chemogenomics Library” (2024)
Square brackets hold non-standard residues; d marks the D form. Peptide text beside a SMILES is read from it. Arg(Me) = CNC(=N)NCCC[C@H](N)C(=O)O; d3Pal = N[C@H](Cc1cccnc1)C(=O)O; d4Pal = N[C@H](Cc1ccncc1)C(=O)O; azaGly = NNC(=O)O

Tested on: Colon organoid
Assay type: functional, Homo sapiens

Compound | Cell Viability Ratio
CC(=O)N1CCC(c2ccc(C(=O)NC3=NCCN3)cc2C(F)(F)F)CC1 [BI 0054] | 1.041
CN(C)C(=O)Cn1cc(-c2nc(C3(c4ccc(-c5cnc(N)nc5)cc4)CC3)no2)cn1 [BI 0153] | 0.9292
COc1ccc2c(O[C@@H]3C[C@H]4C(=O)N[C@]5(C(=O)O)CC5/C=C\CCCCC[C@H](NC(=O)OC5CCCC5)C(=O)N4C3)cc(-c3csc(NC(=O)C(C)C)n3)nc2c1C (some centres not stated) [BI 1230] | 0.9938
O=C(N[C@H]1CCCCC/C=C\C2C[C@@]2(C(=O)O)NC(=O)[C@@H]2C[C@@H](Oc3ccncc3)CN2C1=O)OC1CCCC1 (some centres not stated) [BI 1675] | 1.111
CCOCCn1cc(C(=O)Nc2ccc(-n3nc(-c4cccnc4)cc3C(F)(F)F)cn2)ccc1=O [BI 1935] | 0.9955
C[C@H](NC(=O)c1cnc2n1[C@](C)(Cc1ccc(C#N)cc1)C(=O)N2c1cc(Cl)c(F)c(Cl)c1)C(=O)NC1(c2ccccn2)CC1 [BI 1950] | 0.9219
O=C(Nc1ccc(-n2nc(-c3cccnc3)cc2C(F)(F)F)cn1)c1ccc(-c2ccccc2)c(F)c1 [BI 2049] | 1.116
CCS(=O)(=O)c1cc2cc(C[C@@](O)(CC(C)(C)c3ccc(F)cc3C(N)=O)C(F)(F)F)[nH]c2cn1 [BI 3047] | 1.1136
CCOC(=O)c1cc2cc(-c3cc(C(=O)NCc4ccc(C(=O)O)cc4)nn3C)ccc2[nH]1 [BI 4394] | 0.9253
Cn1nc(C(=O)NCc2ccc(C(=O)O)cc2)cc1-c1ccc2[nH]ccc2c1 [BI 4395] | 1.056
CS(=O)(=O)NCC[C@H](NC(=O)c1cncc2c1cnn2-c1ccc(F)cc1)c1ccnc(S(C)(=O)=O)c1 [BI 9307] | 1.198
C[C@@]1(Cc2ccc(C#N)cc2)C(=O)N(c2cc(Cl)cc(Cl)c2)c2ncc(C(=O)NC3(c4nc(C5CCC5)no4)CC3)n21 [BI 9446] | 1.099
CC(=O)N1CCC(c2ccc(C(=O)NC(=N)N)cc2C(F)(F)F)CC1 [BI 9627] | 0.903
CCC(=O)N[C@H]1CC[C@@H](C(=O)N(C)c2ccc(-c3nc4ccccc4o3)cc2)C1 [BI 99179] | 0.6872
CCC(=O)N[C@@H]1CC[C@H](C(=O)N(C)c2ccc(-c3nc4ccccc4o3)cc2)C1 [BI 99990] | 1.309
CS(=O)(=O)c1cc(C2(NC(=O)c3cncc4c3cnn4-c3ccc(F)cc3)CC2)ccn1 [BI 639667] | 0.9024
CCS(=O)(=O)c1cc2cc(C[C@](O)(CC(C)(C)c3ccc(F)cc3C(N)=O)C(F)(F)F)[nH]c2cn1 [BI 653048] | 0.9178
O=c1nc(-c2ccccn2)sc2ccccc12 [BTZO-1] | 0.8779
O=C1NC(c2ccccn2)Sc2ccccc21 (configuration not stated) [BTZO-4] | 1.041
CN1CCN(Cc2ccc(Nc3ncc(Cl)c(Nc4ccccc4S(=O)(=O)N(C)C)n3)cc2)CC1 [DUBERMATINIB] | 0.1542
C[C@H](NC(=O)Nc1cc2[nH]ncc2c(CO)n1)c1ccccn1 [ERKi-NC] | 1.034

Compound | Cell Viability Ratio
CN(C(=O)c1ccccc1)c1cc(N(C)c2ccc3c(c2)CCc2ccc(C(=O)NCCN4CCOCC4)cc2C3=O)ccc1F [FM-743] | 0.9975
O=C(NCCN1CCOCC1)c1ccc2c(c1)C(=O)c1ccc(Nc3ccc(F)c(NC(=O)c4ccccc4)c3)cc1CC2 [FS-694] | 0.8259
CC(C)(C)OC(=O)N1CCCC1CNC1CCC(c2cc(F)ccc2F)(S(=O)(=O)c2ccc(Cl)cc2)CC1 (configuration not stated) [GSI-NC] | 0.9423
CC(=O)Nc1c(F)cc(C(=O)N[C@H]2CC[C@H](O)CC2)cc1O[C@@H](C)c1ccccc1 [GSK046] | 0.8182
CNC(=O)c1cc(C(=O)NC2CC2)cn(Cc2ccccc2)c1=O [GSK620] | 0.8825
O=C(O)c1ccc(-c2c[nH]c3ncc(-c4ccccc4)cc23)cc1C1CCCC1 [GSK-650394] | 1.062
Cc1c(Oc2ccc(F)cc2)c(OC(C)C)nn1-c1ccc(C2CC2)cn1 [IPP/CNRS-A019] | 1.225
CNC(=N)NCCC[C@H](NC(=O)[C@H](CC(C)C)NC(=O)NNC(=O)[C@H](Cc1ccccc1)NC(=O)[C@H](CO)NC(=O)[C@H](CC(N)=O)NC(=O)[C@@H](Cc1ccncc1)NC(=O)[C@H](N)Cc1ccc(O)cc1)C(=O)N[C@@H](Cc1ccccc1)C(N)=O [KISS1-305] (H-[dY][d4Pal]NSF[azaGly]L[Arg(Me)]F-NH2) | 1.123
CNC(=N)NCCC[C@H](NC(=O)[C@H](CC(C)C)NC(=O)NNC(=O)[C@H](Cc1ccccc1)NC(=O)[C@H](CO)NC(=O)[C@H](CC(N)=O)NC(=O)[C@@H](Cc1cccnc1)NC(=O)[C@H](N)Cc1ccc(O)cc1)C(=O)NCC(N)=O [KISS1-543] (H-[dY][d3Pal]NSF[azaGly]L[Arg(Me)]G-NH2) | 1.03
C[C@@H]1CN(c2cc(-c3nn(C)c4ccc(OC5(C)CC5)cc34)ncn2)C[C@H](C)O1 [MLi-2-NC] | 1.036
CC(=O)c1c(NS(C)(=O)=O)c2cc(-c3ccc(Cl)cc3)c(-c3ccc(Cl)cc3Cl)nc2n(C)c1=O [MRL-CB1-NC] | 1.02
Cc1ccc(-c2cnc([C@@]3(O)CC[C@H](C(=O)O)C(C)(C)C3)s2)cc1Nc1cccc(C(F)(F)F)n1 [MRL-SYKi-NC] | 1.002
Cc1cc(Nc2nccc(C)n2)cc(-c2cnc([C@@]3(O)CC[C@H](C(=O)O)C(C)(C)C3)s2)c1 [MRL-SYKi] | 0.8949
FC(F)(F)c1ccc2c(c1)nc(-c1cccnc1)n2C1CC1 [MSD-CYP11B2-Negative-control] | 1.22
CC(C)(O)c1cncc(-c2nc3ccc(F)cc3n2C2CC2)c1 [MSD-CYP11B2] | 0.9895
N#CC1(c2ccccn2)CCN(Cc2cc(C(=O)N3CCCC3)c(=O)n3ccccc23)CC1 [MSD-M1PAM-NC] | 1.068
CO[C@@H](C)c1c(Nc2ccc([C@@H](N(C)C(=O)C3CCS(=O)(=O)CC3)C(F)(F)F)cc2)cnc2cc(Cl)nn12 [NVS-MALT1-C] | 1.209
CO[C@@H](C)c1c(Nc2ccc([C@H](N(C)C(=O)C3CCS(=O)(=O)CC3)C(F)(F)F)cc2)cnc2cc(Cl)nn12 [NVS-MALT1] | 0.853
Nc1nc(NCc2ccccc2)nc(-c2ccccc2CO)n1 [Ogerin] | 1.099
CN(c1ccnc(CNc2nc(Nc3ccc4c(c3)CC(=O)N4)ncc2C(F)(F)F)n1)S(C)(=O)=O [PF-00911705] | 1.1264
CC(=O)NCC(=O)N1[C@@H]2CC[C@H]1c1ccc(Nc3ncc(C(F)(F)F)c(NC4CCC4)n3)cc12 [PF-03814735] | 0.4683

Compound | Cell Viability Ratio
COc1ccc2cc(OCC3(C(=O)O)CN(C(=O)c4ccc(F)cc4)C3)ccc2c1 [PF-04418948] | 1.076
O=C(c1ccc(F)cc1)N1CC(COc2ccc(Br)cc2)(C(=O)O)C1 [PF-04475866] | 0.9754
C[C@H](c1ccc(F)cc1)N(Cc1ccc(Cl)c(C(=O)O)c1)C(=O)c1cnc2ccccc2c1 [PF-05257137] | 1.055
Cn1cnc2c(F)c(Nc3ccc(Br)cc3Cl)c(C(=O)NOCCO)cc21 [SELUMETINIB] | 1.4315
O=C1c2ccc(Nc3ccc(F)cc3F)cc2CCc2ccc(OC[C@H](O)CO)cc21 [Skepinone-L] | 1.035
CN1CCN(C(=O)C(C)(C)c2ccc(C(=O)Nc3cn4cc(-c5cc(C(C)(C)C)cc(C(C)(C)C)c5)ccc4n3)cc2)CC1 [T3-CLK-N] | 0.9471
COc1cccc(CNC(=O)c2nc3scc(CN(C)Cc4ccccc4)c3c(=O)[nH]2)c1 [T-26f] | 1.048
CC(C)CC(=O)N1CCc2nc(-c3ccc(Br)cc3)nc(N(C)Cc3ccccc3)c2C1 [THPP-1-NC] | 1.2658
COCCOc1nc(-c2ccc(Cl)nc2)nc2c1CN(C(=O)c1ncn3ccccc13)CC2 [THPP-1] | 1.038
Cc1cnc(-c2cc(Cl)ccc2F)cc1-n1c(=O)n(CC(N)=O)c2cnccc21 [TP-008] | 1.1125
Cn1nc(C(F)(F)F)cc1-c1cnc(N2CCc3cc(S(=O)(=O)Nc4c(F)cc(Cl)cc4F)cc(N4CCCC4=O)c32)nc1 [TP-020] | 0.9629
Nc1cnc(N2CCc3cc(S(=O)(=O)Nc4c(F)cc(Cl)cc4F)cc(N4CCCC4=O)c32)nc1 [TP-020n] | 1.046
Cc1cc(-n2nc(Cc3cc(F)cc(C(F)(F)F)c3)nc2C)ccc1C(N)=O [TP-024] | 0.8967
Cc1nc(Cc2cccc(C(F)(F)F)c2)sc1-c1ccc(C(N)=O)nc1 [TP-024n] | 1.0424
CN1C(=O)[C@@H](N2CCc3c(nn(Cc4ccccc4)c3Br)C2=O)COc2ccccc21 [TP-030-2] | 1.065
Cc1ccc2[nH]c(CNCCCc3ccncc3)cc(=O)c2c1 [UCSF924NC] | 1.116
Cc1ccc2nc(CNCCCOc3ccccc3)cc(O)c2c1 [UCSF924] | 1.046
CNC(=O)c1ccccc1Nc1cc(Nc2ccc(N3CCOCC3)cc2OC)ncc1C(F)(F)F [VS-4718] | 0.4552
O=C(NNS(=O)(=O)c1ccccc1)c1cc(-c2ccnnc2)ccc1F [WM-2474] | 1.138
Nc1nc(NCc2ccccc2)nc(-c2cccc(CO)c2)n1 [ZINC32547799] | 1.205
